# Assay results: patent US12492173B2, “Herbicidal substituted N-tetrazolyl aryl carboxamides” (Bayer Aktiengesellschaft, priority 2019, dated 2025)
# Test system: Echinochloa crus-galli
# Assay: Pre-emergence herbicidal action, ECHCG
# Assay type: in vivo
# Parameters: key to Herbicidal action against ECHCG: % activity: 100 = plants have died, 0 = like control plants
# Settings: comparative experiment, 20 g of a.i./ha
# Procedure, shortened: (§1)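 Pre-emergence soil spray over sandy loam-covered seeds; greenhouse 3 weeks; % visual damage (0% = control, 100% = dead).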
row,Structure (SMILES),Herbicidal action against ECHCG
1,CCSCc1c(C(F)(F)F)ccc(C(=O)Nc2nnnn2C)c1SCC [Example 1-182],80
2,CSCc1c(C(F)F)ccc(C(=O)Nc2nnnn2C)c1Cl [Example 1-320],100

# Same assay, conditions: dosage 320 g/ha
row,Structure (SMILES),herbicidal action ECHCG [%]
1,CCn1nnnc1NC(=O)c1ccc(C(F)(F)F)c(CS(=O)(=O)CC)c1C [Example 2-88],100
2,CCCn1nnnc1NC(=O)c1ccc(C(F)(F)F)c(C[S+](C)[O-])c1OC (stereo not drawn) [Example 3-135],100
3,CCn1nnnc1NC(=O)c1ccc(C(F)F)c(C[S+](C)[O-])c1C (stereo not drawn) [Example 2-108],90
4,CCCn1nnnc1NC(=O)c1ccc(I)c(C[S+](C)[O-])c1Cl (stereo not drawn) [Example 3-363],100

# Same assay, conditions: dosage 320 g/ha, scored visually after 3 weeks vs untreated controls (100% = plants have died)
row,Structure (SMILES),herbicidal activity ECHCG [%]
1,COCC[S+]([O-])Cc1c(C(F)(F)F)ccc(C(=O)Nc2nnnn2C)c1Cl (racemic) [Example 1-306],100
2,Cn1nnnc1NC(=O)c1ccc(C(F)(F)F)c(C[S+]([O-])C2CC2)c1Cl (racemic) [Example 1-303],100
3,Cn1nnnc1NC(=O)c1ccc(C(F)(F)F)c(C[S+]([O-])CC(F)(F)F)c1Cl (racemic) [Example 1-312],100
4,CCCn1nnnc1NC(=O)c1ccc(C(F)(F)F)c(C[S+]([O-])CC)c1Br (stereo not drawn) [Example 3-384],100
5,CCn1nnnc1NC(=O)c1ccc(C(F)(F)F)c(CS(C)(=O)=O)c1Cl [Example 2-298],100
6,CCSCc1c(C(F)(F)F)ccc(C(=O)Nc2nnnn2C)c1SCC [Example 1-182],100
7,CSCc1c(C(F)F)ccc(C(=O)Nc2nnnn2C)c1Cl [Example 1-320],100

# Test system: Setaria viridis
# Assay: Pre-emergence herbicidal action, SETVI
# Assay type: in vivo
# Settings: dosage 320 g/ha
# Procedure, shortened: as §1
row,Structure (SMILES),herbicidal action SETVI [%]
1,CCn1nnnc1NC(=O)c1ccc(C(F)(F)F)c(CS(=O)(=O)CC)c1C [Example 2-88],100
2,CCCn1nnnc1NC(=O)c1ccc(C(F)(F)F)c(C[S+](C)[O-])c1OC (stereo not drawn) [Example 3-135],100
3,CCn1nnnc1NC(=O)c1ccc(C(F)F)c(C[S+](C)[O-])c1C (stereo not drawn) [Example 2-108],100
4,CCCn1nnnc1NC(=O)c1ccc(I)c(C[S+](C)[O-])c1Cl (stereo not drawn) [Example 3-363],100

# Same assay, conditions: dosage 320 g/ha, scored visually after 3 weeks vs untreated controls (100% = plants have died)
row,Structure (SMILES),herbicidal activity SETVI [%]
1,COCC[S+]([O-])Cc1c(C(F)(F)F)ccc(C(=O)Nc2nnnn2C)c1Cl (racemic) [Example 1-306],90
2,Cn1nnnc1NC(=O)c1ccc(C(F)(F)F)c(C[S+]([O-])C2CC2)c1Cl (racemic) [Example 1-303],100
3,Cn1nnnc1NC(=O)c1ccc(C(F)(F)F)c(C[S+]([O-])CC(F)(F)F)c1Cl (racemic) [Example 1-312],100
4,CCCn1nnnc1NC(=O)c1ccc(C(F)(F)F)c(C[S+]([O-])CC)c1Br (stereo not drawn) [Example 3-384],100
5,CCn1nnnc1NC(=O)c1ccc(C(F)(F)F)c(CS(C)(=O)=O)c1Cl [Example 2-298],100
6,CCSCc1c(C(F)(F)F)ccc(C(=O)Nc2nnnn2C)c1SCC [Example 1-182],100
7,CSCc1c(C(F)F)ccc(C(=O)Nc2nnnn2C)c1Cl [Example 1-320],100

# Test system: Viola tricolor
# Assay: Pre-emergence herbicidal action, VIOTR
# Assay type: in vivo
# Parameters: key to Herbicidal action against VIOTR: % activity: 100 = plants have died, 0 = like control plants
# Settings: comparative experiment, 20 g of a.i./ha
# Procedure, shortened: as §1
row,Structure (SMILES),Herbicidal action against VIOTR
1,CCSCc1c(C(F)(F)F)ccc(C(=O)Nc2nnnn2C)c1SCC [Example 1-182],80

# Same assay, conditions: dosage 320 g/ha
row,Structure (SMILES),herbicidal action VIOTR [%]
1,CCn1nnnc1NC(=O)c1ccc(C(F)(F)F)c(CS(=O)(=O)CC)c1C [Example 2-88],100
2,CCCn1nnnc1NC(=O)c1ccc(C(F)(F)F)c(C[S+](C)[O-])c1OC (stereo not drawn) [Example 3-135],100
3,CCn1nnnc1NC(=O)c1ccc(C(F)F)c(C[S+](C)[O-])c1C (stereo not drawn) [Example 2-108],100
4,CCCn1nnnc1NC(=O)c1ccc(I)c(C[S+](C)[O-])c1Cl (stereo not drawn) [Example 3-363],100

# Same assay, conditions: dosage 320 g/ha, scored visually after 3 weeks vs untreated controls (100% = plants have died)
row,Structure (SMILES),herbicidal activity VIOTR [%]
1,COCC[S+]([O-])Cc1c(C(F)(F)F)ccc(C(=O)Nc2nnnn2C)c1Cl (racemic) [Example 1-306],100
2,Cn1nnnc1NC(=O)c1ccc(C(F)(F)F)c(C[S+]([O-])C2CC2)c1Cl (racemic) [Example 1-303],100
3,Cn1nnnc1NC(=O)c1ccc(C(F)(F)F)c(C[S+]([O-])CC(F)(F)F)c1Cl (racemic) [Example 1-312],100
4,CCCn1nnnc1NC(=O)c1ccc(C(F)(F)F)c(C[S+]([O-])CC)c1Br (stereo not drawn) [Example 3-384],100
5,CCn1nnnc1NC(=O)c1ccc(C(F)(F)F)c(CS(C)(=O)=O)c1Cl [Example 2-298],100
6,CCSCc1c(C(F)(F)F)ccc(C(=O)Nc2nnnn2C)c1SCC [Example 1-182],100
7,CSCc1c(C(F)F)ccc(C(=O)Nc2nnnn2C)c1Cl [Example 1-320],100

# Test system: Amaranthus retroflexus
# Assay: Post-emergence herbicidal action, AMARE
# Assay type: in vivo
# Parameters: key: % herbicidal action vs untreated; 100 = plants died, 0 = like control
# Settings: Dosage 80 g/ha
# Procedure, shortened: (§2)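 Greenhouse post-emergence test: weeds sown in sandy loam were sprayed once at one leaf, 2 to 3 weeks from sowing, with aqueous WP or EC preparations carrying 0.2% wetting agent. Effect is scored visually after about 3 weeks.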
row,Structure (SMILES),herbicidal action AMARE
1,COCC[S+]([O-])Cc1c(C(F)(F)F)ccc(C(=O)Nc2nnnn2C)c1Cl (racemic) [Example 1-306],100
2,CCCn1nnnc1NC(=O)c1ccc(C(F)(F)F)c(C[S+]([O-])CC)c1Br (stereo not drawn) [Example 3-384],90
3,CCn1nnnc1NC(=O)c1ccc(C(F)(F)F)c(CS(C)(=O)=O)c1Cl [Example 2-298],90
4,CCn1nnnc1NC(=O)c1ccc(C(F)(F)F)c(CS(=O)(=O)CC)c1C [Example 2-88],90
5,CCCn1nnnc1NC(=O)c1ccc(C(F)(F)F)c(C[S+](C)[O-])c1OC (stereo not drawn) [Example 3-135],100
6,CCn1nnnc1NC(=O)c1ccc(C(F)F)c(C[S+](C)[O-])c1C (stereo not drawn) [Example 2-108],100
7,CCSCc1c(C(F)(F)F)ccc(C(=O)Nc2nnnn2C)c1SCC [Example 1-182],90
8,CCCn1nnnc1NC(=O)c1ccc(I)c(C[S+](C)[O-])c1Cl (stereo not drawn) [Example 3-363],100
9,CSCc1c(C(F)F)ccc(C(=O)Nc2nnnn2C)c1Cl [Example 1-320],100

# Same assay, conditions: comparative experiment, post-emergence, 5 g of a.i./ha
row,Structure (SMILES),Herbicidal action against AMARE
1,CCSCc1c(C(F)(F)F)ccc(C(=O)Nc2nnnn2C)c1SCC [Example 1-182],80
2,CSCc1c(C(F)F)ccc(C(=O)Nc2nnnn2C)c1Cl [Example 1-320],100

# Same assay, conditions: post-emergence, dosage 80 g/ha
row,Structure (SMILES),herbicidal action AMARE [%]
1,Cn1nnnc1NC(=O)c1ccc(C(F)(F)F)c(C[S+]([O-])C2CC2)c1Cl (racemic) [Example 1-303],100
2,Cn1nnnc1NC(=O)c1ccc(C(F)(F)F)c(C[S+]([O-])CC(F)(F)F)c1Cl (racemic) [Example 1-312],100

# Test system: Pharbitis purpurea
# Assay: Post-emergence herbicidal action, PHBPU
# Assay type: in vivo
# Settings: Dosage 80 g/ha
# Procedure, shortened: as §2
row,Structure (SMILES),herbicidal action PHBPU
1,COCC[S+]([O-])Cc1c(C(F)(F)F)ccc(C(=O)Nc2nnnn2C)c1Cl (racemic) [Example 1-306],90
2,CCCn1nnnc1NC(=O)c1ccc(C(F)(F)F)c(C[S+]([O-])CC)c1Br (stereo not drawn) [Example 3-384],80
3,CCn1nnnc1NC(=O)c1ccc(C(F)(F)F)c(CS(C)(=O)=O)c1Cl [Example 2-298],90
4,CCn1nnnc1NC(=O)c1ccc(C(F)(F)F)c(CS(=O)(=O)CC)c1C [Example 2-88],90
5,CCCn1nnnc1NC(=O)c1ccc(C(F)(F)F)c(C[S+](C)[O-])c1OC (stereo not drawn) [Example 3-135],90
6,CCn1nnnc1NC(=O)c1ccc(C(F)F)c(C[S+](C)[O-])c1C (stereo not drawn) [Example 2-108],100
7,CCSCc1c(C(F)(F)F)ccc(C(=O)Nc2nnnn2C)c1SCC [Example 1-182],90
8,CCCn1nnnc1NC(=O)c1ccc(I)c(C[S+](C)[O-])c1Cl (stereo not drawn) [Example 3-363],90
9,CSCc1c(C(F)F)ccc(C(=O)Nc2nnnn2C)c1Cl [Example 1-320],90

# Same assay, conditions: post-emergence, dosage 80 g/ha
row,Structure (SMILES),herbicidal action PHBPU [%]
1,Cn1nnnc1NC(=O)c1ccc(C(F)(F)F)c(C[S+]([O-])C2CC2)c1Cl (racemic) [Example 1-303],100
2,Cn1nnnc1NC(=O)c1ccc(C(F)(F)F)c(C[S+]([O-])CC(F)(F)F)c1Cl (racemic) [Example 1-312],100

# Test system: Viola tricolor
# Assay: Post-emergence herbicidal action, VIOTR
# Assay type: in vivo
# Parameters: key: % herbicidal action vs untreated; 100 = plants died, 0 = like control
# Settings: Dosage 80 g/ha
# Procedure, shortened: as §2
row,Structure (SMILES),herbicidal action VIOTR
1,COCC[S+]([O-])Cc1c(C(F)(F)F)ccc(C(=O)Nc2nnnn2C)c1Cl (racemic) [Example 1-306],100
2,CCCn1nnnc1NC(=O)c1ccc(C(F)(F)F)c(C[S+]([O-])CC)c1Br (stereo not drawn) [Example 3-384],100
3,CCn1nnnc1NC(=O)c1ccc(C(F)(F)F)c(CS(C)(=O)=O)c1Cl [Example 2-298],100
4,CCn1nnnc1NC(=O)c1ccc(C(F)(F)F)c(CS(=O)(=O)CC)c1C [Example 2-88],100
5,CCCn1nnnc1NC(=O)c1ccc(C(F)(F)F)c(C[S+](C)[O-])c1OC (stereo not drawn) [Example 3-135],100
6,CCn1nnnc1NC(=O)c1ccc(C(F)F)c(C[S+](C)[O-])c1C (stereo not drawn) [Example 2-108],100
7,CCSCc1c(C(F)(F)F)ccc(C(=O)Nc2nnnn2C)c1SCC [Example 1-182],100
8,CCCn1nnnc1NC(=O)c1ccc(I)c(C[S+](C)[O-])c1Cl (stereo not drawn) [Example 3-363],100
9,CSCc1c(C(F)F)ccc(C(=O)Nc2nnnn2C)c1Cl [Example 1-320],100

# Same assay, conditions: comparative experiment, post-emergence, 5 g of a.i./ha
row,Structure (SMILES),Herbicidal action against VIOTR
1,CCSCc1c(C(F)(F)F)ccc(C(=O)Nc2nnnn2C)c1SCC [Example 1-182],90

# Same assay, conditions: post-emergence, dosage 80 g/ha
row,Structure (SMILES),herbicidal action VIOTR [%]
1,Cn1nnnc1NC(=O)c1ccc(C(F)(F)F)c(C[S+]([O-])C2CC2)c1Cl (racemic) [Example 1-303],100
2,Cn1nnnc1NC(=O)c1ccc(C(F)(F)F)c(C[S+]([O-])CC(F)(F)F)c1Cl (racemic) [Example 1-312],100
